Measurements from ChEMBL document CHEMBL5260813, “An overview on the recent developments of 1,2,4-triazine derivatives as anticancer compounds” (Eur J Med Chem, 2017).
Converted amounts (≈) assume the structure as drawn.

Experiments:
KB = assay: Antiproliferative activity against human KB cells assessed as inhibition of cell growth under hypoxia condition; type: functional, cell-based
A549 [1] = assay: Antiproliferative activity against human A549 cells assessed as inhibition of cell growth under hypoxia condition; type: functional, cell-based
A549 [2] = assay: Antiproliferative activity against human A549 cells assessed as inhibition of cell growth incubated for 72 hrs by MTT assay; type: functional, cell-based; conditions: A549, 72 h
SMMC-7721 = assay: Antiproliferative activity against human SMMC-7721 cells assessed as inhibition of cell growth incubated for 72 hrs by MTT assay; type: functional, cell-based; conditions: SMMC-7721, 72 h
K562 [3] = assay: Induction of apoptosis in human K562 cells assessed as increase in apoptotic cells under normoxia condition relative to control; type: functional
K562 [4] = assay: Induction of apoptosis in human K562 cells assessed as increase in apoptotic cells under hypoxia condition relative to control; type: functional
[5] = target: T1, Tyrosine-protein kinase SYK (Homo sapiens, UniProt P43405); assay: Inhibition of human SYK using 5-Fluo-Ahx-GAPDYENLQELNKK-Amid as substrate in presence of ATP by microfluidic mobility shift assay
TMD8 = assay: Antiproliferative activity against human TMD8 cells assessed as inhibition of cell growth incubated for 3 days by WST-1 assay; type: functional, cell-based; conditions: TMD8, 72 h
OCI-Ly10 = assay: Antiproliferative activity against human OCI-Ly10 cells assessed as inhibition of cell growth incubated for 3 days by WST-1 assay; type: functional, cell-based; conditions: OCI-Ly10, 72 h
[6] = Antiproliferative activity against human HBL1 cells assessed as inhibition of cell growth incubated for 3 days by WST-1 assay; type: functional, cell-based; conditions: HBL1, 72 h
[7] = target: T1, Tyrosine-protein kinase SYK; assay: Inhibition of SYK in human Ramos cells assessed as reduction in anti IgM-induced phosphorylation of BLNK by flow cytometry assay; type: cell-based
MCF7 [8] = assay: Antiproliferative activity against human MCF7 cells assessed as inhibition of cell growth by MTT assay; type: functional, cell-based
HepG2 = assay: Antiproliferative activity against human HepG2 cells assessed as cell growth inhibition by MTT assay; type: functional, cell-based
HCT-116 = assay: Antiproliferative activity against human HCT-116 cells assessed as inhibition of cell growth by MTT assay; type: functional, cell-based
[9] = target: T2, Interleukin-1 receptor-associated kinase 4 (Homo sapiens, UniProt Q9NWZ3); assay: Inhibition of human GST-tagged IRAK4 incubated for 30 mins in presence of ATP by fluorescent polarization assay
T2 sequence (Q9NWZ3 whole entry): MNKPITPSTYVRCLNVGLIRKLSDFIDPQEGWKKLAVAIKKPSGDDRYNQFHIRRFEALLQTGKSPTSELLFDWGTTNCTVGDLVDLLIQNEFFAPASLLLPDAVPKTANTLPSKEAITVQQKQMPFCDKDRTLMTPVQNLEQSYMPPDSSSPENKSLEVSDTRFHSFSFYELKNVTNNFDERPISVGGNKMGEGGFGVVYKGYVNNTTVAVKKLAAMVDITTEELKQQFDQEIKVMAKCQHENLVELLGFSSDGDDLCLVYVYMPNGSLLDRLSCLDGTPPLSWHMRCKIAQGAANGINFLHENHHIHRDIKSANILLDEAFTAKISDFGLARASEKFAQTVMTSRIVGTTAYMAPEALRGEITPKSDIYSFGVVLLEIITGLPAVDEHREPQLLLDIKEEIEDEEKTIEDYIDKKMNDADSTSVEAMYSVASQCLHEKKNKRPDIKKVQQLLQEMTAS

MDA-MB-468 = assay: Antiproliferative activity against human MDA-MB-468 cells assessed as reduction in cell viability; type: functional
[10] = target: Glutaminase kidney isoform, mitochondrial (Homo sapiens, UniProt O94925); assay: Inhibition of GLS in human PC-3 cells using glutamine as substrate by amplex red staining-based horseradish peroxidase/glutamate oxidase coupled assay; type: cell-based
MCF7 [11] = assay: Antiproliferative activity against human MCF7 cells assessed as inhibition of cell growth at 100 uM relative to control; type: functional
SF-268 [12] = assay: Antiproliferative activity against human SF-268 cells assessed as inhibition of cell growth at 100 uM relative to control; type: functional
OVCAR-4 = assay: Antiproliferative activity against human OVCAR-4 cells assessed as cell growth inhibition; type: functional, cell-based
CAKI-1 = assay: Antiproliferative activity against human CAKI-1 cells assessed as inhibition of cell growth; type: functional, cell-based
PC-3 = assay: Antiproliferative activity against human PC-3 cells assessed as inhibition of cell growth measured after 48 hrs by MTT assay; type: functional, cell-based; conditions: PC-3, 48 h
MCF7 [13] = assay: Antiproliferative activity against human MCF7 cells assessed as inhibition of cell growth measured after 48 hrs by MTT assay; type: functional, cell-based; conditions: MCF7, 48 h
NCI-H460 [14] = assay: Antiproliferative activity against human NCI-H460 cells assessed as inhibition of cell growth measured after 48 hrs by MTT assay; type: functional, cell-based; conditions: NCI-H460, 48 h
[15] = target: Fibroblast growth factor receptor (Homo sapiens, UniProt P22607+P11362+P22455+P21802); assay: Inhibition of FGFR (unknown origin); type: protein assay
MCF7 [16] = assay: Antiproliferative activity against human MCF7 cells assessed as inhibition of cell growth; type: functional, cell-based
NCI-H460 [17] = assay: Antiproliferative activity against human NCI-H460 cells assessed as inhibition of cell growth; type: functional, cell-based
SF-268 [18] = assay: Antiproliferative activity against human SF-268 cells assessed as inhibition of cell growth; type: functional, cell-based
[19] = target: Cyclin-dependent kinase 2/cyclin E1 (Homo sapiens, UniProt P24941); assay: Inhibition of CDK2/cyclin E1 (unknown origin) expressed in Sf9 cells
[20] = Cytotoxicity against human CEM cells assessed as inhibition of cell growth incubated for 72 hrs by MTT assay; type: toxicity, cell-based; conditions: CEM (CCRF-CEM) cells, pooled result: one value given for 5 cell lines, strains, targets or settings
MCF7 [21] = assay: Cytotoxicity against human MCF7 cells assessed as inhibition of cell growth incubated for 72 hrs by MTT assay; type: functional, cell-based; conditions: MCF7, 72 h
[22] = tested on: Panel NCI-60 (60 carcinoma cell lines); assay: Antiproliferative activity against human Panel NCI-60 (60 carcinoma cell lines) cells assessed as inhibition of cell growth; type: functional, cell-based

Glutaminase kidney isoform, mitochondrial, sequence (O94925 whole entry, canonical isoform): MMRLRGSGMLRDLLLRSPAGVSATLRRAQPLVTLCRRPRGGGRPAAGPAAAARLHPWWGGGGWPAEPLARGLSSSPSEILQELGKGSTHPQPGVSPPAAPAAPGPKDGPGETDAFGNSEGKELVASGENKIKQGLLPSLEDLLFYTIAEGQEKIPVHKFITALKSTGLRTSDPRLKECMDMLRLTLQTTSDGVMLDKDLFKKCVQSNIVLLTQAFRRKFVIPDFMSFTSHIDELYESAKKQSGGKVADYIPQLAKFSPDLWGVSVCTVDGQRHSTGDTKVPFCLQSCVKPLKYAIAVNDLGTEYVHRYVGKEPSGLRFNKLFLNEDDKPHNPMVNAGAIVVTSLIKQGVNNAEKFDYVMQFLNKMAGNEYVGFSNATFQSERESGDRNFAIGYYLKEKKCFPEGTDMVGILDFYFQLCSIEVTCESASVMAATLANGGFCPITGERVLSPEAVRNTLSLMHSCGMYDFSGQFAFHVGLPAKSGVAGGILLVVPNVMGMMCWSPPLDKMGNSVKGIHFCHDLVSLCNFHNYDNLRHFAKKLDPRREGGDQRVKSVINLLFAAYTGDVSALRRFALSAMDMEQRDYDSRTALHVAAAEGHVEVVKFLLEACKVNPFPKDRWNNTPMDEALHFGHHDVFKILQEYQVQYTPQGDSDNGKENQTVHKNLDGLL

Work on `COCNc1n[n+]([O-])c2ccccc2[n+]1[O-]` yielded an IC50 (KB) of 2.7 µM and an IC50 (A549 [1]) of 2.7 µM.
With `CCOCNc1n[n+]([O-])c2ccccc2[n+]1[O-]` the IC50 (A549 [2]) was 3.12 µM, the IC50 (SMMC-7721) was 3.12 µM and the IC50 (KB) was 4.09 µM. The Activity (K562 [3]) was 9.5% and the Activity (K562 [4]) was 32.11%.
`NC(=O)c1nnc(N[C@@H]2CCCC[C@@H]2N)nc1Nc1cccc2cc[nH]c12` gave an IC50 [5] of 0.0008 µM, an IC50 (TMD8) of 0.281 µM and an IC50 (OCI-Ly10) of 0.025 µM. It also gave an IC50 [6] of 0.105 µM and an IC50 [7] of 0.014 µM.
Work on `O=c1[nH]n2c(=O)c(/C=C/c3cccs3)nnc2s1` yielded an IC50 (MCF7 [8]) of 8.34 µg/mL (≈ 30 µM), an IC50 (HepG2) of 8.34 µg/mL (≈ 30 µM) and an IC50 (HCT-116) of 8.34 µg/mL (≈ 30 µM).
Work on `O=C(O)CCc1nn2c(=O)c(/C=C/c3cccs3)nnc2s1` yielded an IC50 (MCF7 [8]) of 11.7 µg/mL (≈ 34.8 µM), an IC50 (HepG2) of 12.1 µg/mL (≈ 36.3 µM) and an IC50 (HCT-116) of 8.34 µg/mL (≈ 24.9 µM).
`CCn1cc(NC(=O)c2ccc3cnc(NC4CCCCC4N)nn23)c(C(N)=O)n1` (centres undefined) showed an IC50 [9] of 0.001 µM.
In the case of `CC(C)c1ccc(-c2nn3nnc4ccccc4c3nc2=O)cc1`, the GI50 (MDA-MB-468) is reported as 0.41 µM.
`COC(C(=O)Cc1cnc(NC2CCN(c3cncnn3)C2)s1)c1cccc(OC(F)(F)F)c1` (centres undefined) showed an IC50 [10] of 0.043 µM.
`CC(=O)OC[C@H]1O[C@@H](n2nc(Cc3ccccc3)c(=S)n(N)c2=S)[C@H](OC(C)=O)[C@@H](OC(C)=O)[C@H]1OC(C)=O` showed an inhibition at 100 µM (MCF7 [11]) of 15% and an inhibition at 100 µM (SF-268 [12]) of 38%.
`Cc1nn(C)c2nn3nnnc3nc12` gave an IC50 (OVCAR-4) of 1.12 µM, an IC50 (CAKI-1) of 1.12 µM and an IC50 (PC-3) of 0.4 µM. For the same compound, the IC50 (MCF7 [13]) was 0.4 µM and the IC50 (NCI-H460 [14]) was 0.4 µM.
For `CCn1c(=O)c(-c2cc(OC)cc(OC)c2)cc2nnc(Nc3ccncc3)nc21`, the IC50 [15] was 0.35 µM.
`Cc1ccc(C2=NN=C(/C(C#N)=N/Nc3sc4c(c3C#N)CCCC4)N(Nc3ccccc3)C2)cc1` gave an IC50 (MCF7 [16]) of 12.4 µM, an IC50 (NCI-H460 [17]) of 6.8 µM and an IC50 (SF-268 [18]) of 8.3 µM.
With `Cn1cc(NC(=O)c2ccc3cnc(NC4CCCCC4N)nn23)c(C(N)=O)n1` (centres undefined) the IC50 [9] was 0.0007 µM.
`Oc1cccc(-n2nc(-c3cc(O)c(O)c(O)c3)c3nc(-c4ccc(Cl)cc4)nnc32)c1` showed an IC50 [19] of 17.3 µM, an IC50 at 72 h [20] of 1.9 µM and an IC50 (MCF7 [21]) of 1.9 µM.
`Cc1c(C#N)c2nnc(C(N)=O)c(N)n2c1-c1ccccc1` showed an IC50 (OVCAR-4) of 2.77 µM and an IC50 [22] of 3.34 µM.
Work on `O=C(O)c1ccccc1-c1nn2c(=O)c(/C=C/c3cccs3)nnc2s1` yielded an IC50 (MCF7 [8]) of 8.34 µg/mL (≈ 21.8 µM), an IC50 (HepG2) of 8.34 µg/mL (≈ 21.8 µM) and an IC50 (HCT-116) of 8.34 µg/mL (≈ 21.8 µM).
For `Oc1cc(-c2nn(-c3cc(O)c(O)c(O)c3)c3nnc(-c4ccc(Cl)cc4)nc23)cc(O)c1O`, the IC50 [19] was 11 µM, the IC50 at 72 h [20] was 0.77 µM and the IC50 (MCF7 [21]) was 0.77 µM.
